For one assay, the system named is complement. Nature of the assay: Inhibition of complement mediated hemolysis. Format: cell-based. The procedure:
The complement mediated hemolysis is widely used as a means to determine the titration of complement. The principle of this method is based on the fact that hemolysis if caused by the activation of complement, when the latter is added to a complex (immune complex) of erythrocytes and the antibody thereof. The degree of hemolysis varies in proportion to the amount of complement added. Therefore, when a known amount of complement admixed with a Cl esterase inhibitor is used, the hemolysis must be suppressed in proportion to the inhibitory activity.
The anti-Cl esterase (Clr, Cls) activity was determined according to the method of Okamura et al. [K. Okamura, M. Muramatsu and B. Fujii, Biochem. Biophys. […] The figures in Table 2 have the following meanings: […]

For another assay, the target named is T1, Clr (Homo sapiens, UniProt P00736).
T1 sequence (P00736 464-705 limits assumed): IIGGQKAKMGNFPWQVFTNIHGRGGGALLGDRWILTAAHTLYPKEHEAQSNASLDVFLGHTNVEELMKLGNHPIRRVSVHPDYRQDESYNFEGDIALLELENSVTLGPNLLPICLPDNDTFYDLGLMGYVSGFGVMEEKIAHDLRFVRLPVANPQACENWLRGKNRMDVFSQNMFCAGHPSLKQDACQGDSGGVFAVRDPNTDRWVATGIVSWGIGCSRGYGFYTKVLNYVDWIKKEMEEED
T1 sequence (P00736 18-463 limits assumed): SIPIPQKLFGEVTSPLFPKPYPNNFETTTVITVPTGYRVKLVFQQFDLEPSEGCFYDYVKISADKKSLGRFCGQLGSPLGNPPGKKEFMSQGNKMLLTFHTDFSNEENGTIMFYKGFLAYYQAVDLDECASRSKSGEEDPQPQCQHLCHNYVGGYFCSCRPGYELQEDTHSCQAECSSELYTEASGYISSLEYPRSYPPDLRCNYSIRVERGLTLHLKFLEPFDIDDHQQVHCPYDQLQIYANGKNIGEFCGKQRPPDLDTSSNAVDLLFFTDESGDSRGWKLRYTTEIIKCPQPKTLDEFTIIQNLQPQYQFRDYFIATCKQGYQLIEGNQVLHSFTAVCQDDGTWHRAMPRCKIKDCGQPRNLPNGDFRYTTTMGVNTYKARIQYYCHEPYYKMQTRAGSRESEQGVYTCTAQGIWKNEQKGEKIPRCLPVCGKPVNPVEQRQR
The experiment in a line: Anti-Cl esterase activity, Clr (AAME hydrolysis). Format: biochemical. The following applies: hydrolysis of AAME; read-out: Anti-Cl activity, Clr (ID50). The procedure: The anti-Cl esterase ([…]) activity was determined according to the method of Okamura et al. [K. Okamura, M. Muramatsu and B. Fujii, Biochem. Biophys.

The structures appear in SMILES notation. Some results are limits rather than exact numbers.

This is an account of results in patent US4570006A, “Amidine compound, process for producing same and anti-complement agent comprising same” (Torii & Co. Ltd., priority 1981, dated 1986).

On to `COc1cc(C(=N)N)ccc1OC(=O)CC(C)C` [Compound 3, 4-amidino-2-methoxyphenyl isovalerate], for which the “Inhibition of complement mediated hemolysis (%)” value (“Inhibition … (%)” below) in the assay on complement (compound at 1 × 10^-4) stood at 44.4%; with complement (compound at 1 × 10^-5) it was 5.0%; in the assay with complement (compound at 1 × 10^-6) it was 18.0%; in the assay with complement (compound at 1 × 10^-7), 0%.
For `CCCCCCC(=O)Oc1ccc(C(=N)N)cc1C(=O)c1ccccc1` [Compound 4], in that order: 95.0%, 67.2%, 8.7% and 0%.
`COc1cc(C(=N)N)ccc1OC(=O)C1CCCCC1` [Compound 9]: the results for the “Inhibition … (%)” value with complement (compound at 1 × 10^-5), in the assay on complement (compound at 1 × 10^-6) and in the assay with complement (compound at 1 × 10^-7) were 16.2%, 2.5% and 0%, respectively.
Take `N=C(N)NCCCCCC(=O)Oc1ccc(C(=N)N)cc1C(=O)c1ccccc1` [Compound 15]: the “Inhibition … (%)” value in the assay on complement (compound at 1 × 10^-4) is reported as 98.8%; in the assay on complement (compound at 1 × 10^-5), 81.7%; with complement (compound at 1 × 10^-6), 12.7%; in the assay on complement (compound at 1 × 10^-7) it was 0%.
For `COc1cc(C(=N)N)ccc1OC(=O)CCc1ccccc1` [Compound 32, 4-amidino-2-methoxyphenyl 3-phenylpropionate], in that order: 63.9%, 97.5%, 7.1% and 0%.
For `Cc1cccc(C(=O)Oc2ccc(C(=N)N)cc2[N+](=O)[O-])c1` [Compound 36], in that order: 100%, 100%, 100% and 90.4%.
Turning to `CC(C)Cc1ccc(C(C)C(=O)Oc2ccc(C(=N)N)cc2C(=O)c2ccccc2)cc1` (stereo not drawn) [Compound 40], the “Inhibition … (%)” value was found to be 87.5% in the assay on complement (compound at 1 × 10^-4), 68.1% in the assay with complement (compound at 1 × 10^-5), 7.8% with complement (compound at 1 × 10^-6) and 2.0% in the assay on complement (compound at 1 × 10^-7).
For `COc1ccccc1C(=O)Oc1ccc(C(=N)N)cc1C(=O)c1ccccc1` [Compound 41], in that order: 66.7%, 9.3%, 0% and 0%.
For `COc1cccc(CC(=O)Oc2ccc(C(=N)N)cc2OC)c1` [Compound 43], in that order: 95.0%, 50.4%, 3.7% and 0%.
In the case of `CC(=O)c1ccc(C(=O)Oc2ccc(C(=N)N)cc2C(=O)c2ccccc2)cc1` [Compound 53], the “Inhibition … (%)” value in the assay on complement (compound at 1 × 10^-4) is recorded as 87.5%; with complement (compound at 1 × 10^-5), 25.2%; in the assay with complement (compound at 1 × 10^-7), 3.5%.
As to `CC(=O)Oc1ccc(CCC(=O)Oc2ccc(C(=N)N)cc2C(=O)c2ccccc2)cc1` [Compound 55, 4-amidino-2-benzoylphenyl 3-(4-acetyloxy)phenylpropionate], the “Inhibition … (%)” value in the assay on complement (compound at 1 × 10^-4) worked out at 100%; in the assay with complement (compound at 1 × 10^-5), 96.9%; in the assay on complement (compound at 1 × 10^-6), 60.8%; in the assay on complement (compound at 1 × 10^-7) it was 3.5%.
Turning to `N=C(N)c1ccc(OC(=O)c2ccc(CNC(=O)OCc3ccccc3)cc2)c(C(=O)c2ccccc2)c1` [Compound 63], the “Inhibition … (%)” value is 100% in the assay with complement (compound at 1 × 10^-4), 100% with complement (compound at 1 × 10^-5), 98.0% with complement (compound at 1 × 10^-6) and 94.5% in the assay with complement (compound at 1 × 10^-7).
For the molecule `N=C(N)c1ccc(OC(=O)c2ccc(CN)cc2)c(C(=O)c2ccccc2)c1` [Compound 64], the “Inhibition … (%)” value in the assay on complement (compound at 1 × 10^-4) is 100%; in the assay on complement (compound at 1 × 10^-5), 100%; with complement (compound at 1 × 10^-6), 97.1%; in the assay on complement (compound at 1 × 10^-7) it was 75.7%.
`COc1cc(C(=N)N)ccc1OC(=O)CCCc1ccc(N)cc1` [Compound 65, 4-amidino-2-methoxyphenyl 4-(4-aminophenyl)butyrate]: the “Inhibition … (%)” value in the assay on complement (compound at 1 × 10^-4) is recorded as 81.7%; with complement (compound at 1 × 10^-5) it was 9.8%; in the assay with complement (compound at 1 × 10^-6) it was 0%; in the assay with complement (compound at 1 × 10^-7), 0%.
In the case of `N=C(N)c1ccc(OC(=O)c2ccc(S(N)(=O)=O)cc2)c(C(=O)c2ccccc2)c1` [Compound 67], the “Inhibition … (%)” value in the assay on complement (compound at 1 × 10^-4) worked out at 99.2%; in the assay on complement (compound at 1 × 10^-5) it was 99.2%; with complement (compound at 1 × 10^-6), 96.9%; in the assay with complement (compound at 1 × 10^-7), 57.5%.
Turning to `N=C(N)c1ccc(OC(=O)c2ccc(S(N)(=O)=O)cc2)c([N+](=O)[O-])c1` [Compound 68], the “Inhibition … (%)” value with complement (compound at 1 × 10^-4) is on record as 100%; in the assay on complement (compound at 1 × 10^-5) it was 92.9%; in the assay with complement (compound at 1 × 10^-6) it was 50.6%; with complement (compound at 1 × 10^-7) it was 5.8%.
For `N=C(N)Nc1ccc(C(=O)Nc2cc(C(=N)N)ccc2OC(=O)c2ccc(NC(=N)N)cc2)cc1` [Compound 73, 4-amidino-2-(4-guanidinobenzoylamino)phenyl 4-guanidinobenzoate], in that order: 100%, 100%, 89.9% and 46.1%.
For the molecule `CN(C(=N)N)c1ccc(C(=O)Oc2ccc(C(=N)N)cc2C(=O)c2ccccc2)cc1` [Compound 78], at Clr, the IC50 was over 10 µM. Besides, the “Inhibition … (%)” value in the assay with complement (compound at 1 × 10^-4) was determined as 97.4%; with complement (compound at 1 × 10^-5), 58.8%; in the assay on complement (compound at 1 × 10^-6), 7.0%; with complement (compound at 1 × 10^-7) it was 0%.
As to `CNC(=S)Nc1ccc(C(=O)Oc2ccc(C(=N)N)cc2C(=O)c2ccccc2)cc1` [Compound 79], the IC50 on Clr is over 10 µM. In addition, the “Inhibition … (%)” value with complement (compound at 1 × 10^-4) is listed as 95.1%; with complement (compound at 1 × 10^-5) it was 96.8%; in the assay on complement (compound at 1 × 10^-6), 81.7%; in the assay with complement (compound at 1 × 10^-7), 48.1%.
With `CC(C(=O)Oc1ccc(C(=N)N)cc1C(=O)c1ccccc1)c1ccc(Cl)cc1` (stereo not drawn) [Compound 86], the “Inhibition … (%)” value in the assay with complement (compound at 1 × 10^-4) is recorded as 100%; in the assay with complement (compound at 1 × 10^-5), 97.1%; with complement (compound at 1 × 10^-6), 53.6%; with complement (compound at 1 × 10^-7) it was 11.0%.
For `CC(=O)N[C@@H](CC(C)C)C(=O)N[C@@H](CC(C)C)C(=O)N[C@H](C=O)CCCNC(=N)N` [Leupeptin, reference compound], the “Inhibition … (%)” value in the assay with complement (compound at 1 × 10^-4) stood at 97%; in the assay with complement (compound at 1 × 10^-5) it was 52%; in the assay with complement (compound at 1 × 10^-6), 0%; in the assay with complement (compound at 1 × 10^-7), 0%.
